In general, pIC50 refers to the negative decadic logarithm of the IC50, by convention in mol/L.

Data on 23 compounds can be found in ChEMBL document CHEMBL1143297, “Synthesis and CHK1 inhibitory potency of Hymenialdisine analogues” (Bioorg Med Chem Lett, 2009).

Experiment [1] deals with T1, Serine/threonine-protein kinase Chk1 (Homo sapiens, UniProt O14757).
T1 sequence (O14757 whole entry): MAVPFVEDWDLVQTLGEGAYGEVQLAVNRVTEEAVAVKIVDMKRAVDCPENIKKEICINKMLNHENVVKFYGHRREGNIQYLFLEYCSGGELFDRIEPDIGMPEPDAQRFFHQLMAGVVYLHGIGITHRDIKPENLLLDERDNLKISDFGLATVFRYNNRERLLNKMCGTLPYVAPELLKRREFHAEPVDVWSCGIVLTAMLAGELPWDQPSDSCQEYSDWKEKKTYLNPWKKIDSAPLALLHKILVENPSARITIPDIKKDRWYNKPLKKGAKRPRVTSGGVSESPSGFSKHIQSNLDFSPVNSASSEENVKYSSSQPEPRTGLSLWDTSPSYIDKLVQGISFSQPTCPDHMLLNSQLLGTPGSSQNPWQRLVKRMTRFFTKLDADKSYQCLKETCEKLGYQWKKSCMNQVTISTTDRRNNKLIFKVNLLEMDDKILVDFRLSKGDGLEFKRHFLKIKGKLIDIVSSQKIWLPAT
Briefly: Inhibition of CHK1.

Experiment [2] concerns the target Glycogen synthase kinase-3 beta (Homo sapiens) (UniProt P49841). Nature of the experiment: Inhibition of GSK3-beta.
Experiment [3] addresses Serine/threonine-protein kinase SIK1 (Homo sapiens) (UniProt P57059). Briefly: Inhibition of SIK.
For experiment [4], the target named is Receptor-type tyrosine-protein kinase FLT3 (Homo sapiens) (UniProt P36888). Briefly: Inhibition of FLT3.
Receptor-type tyrosine-protein kinase FLT3 (Homo sapiens), sequence (P36888 whole entry): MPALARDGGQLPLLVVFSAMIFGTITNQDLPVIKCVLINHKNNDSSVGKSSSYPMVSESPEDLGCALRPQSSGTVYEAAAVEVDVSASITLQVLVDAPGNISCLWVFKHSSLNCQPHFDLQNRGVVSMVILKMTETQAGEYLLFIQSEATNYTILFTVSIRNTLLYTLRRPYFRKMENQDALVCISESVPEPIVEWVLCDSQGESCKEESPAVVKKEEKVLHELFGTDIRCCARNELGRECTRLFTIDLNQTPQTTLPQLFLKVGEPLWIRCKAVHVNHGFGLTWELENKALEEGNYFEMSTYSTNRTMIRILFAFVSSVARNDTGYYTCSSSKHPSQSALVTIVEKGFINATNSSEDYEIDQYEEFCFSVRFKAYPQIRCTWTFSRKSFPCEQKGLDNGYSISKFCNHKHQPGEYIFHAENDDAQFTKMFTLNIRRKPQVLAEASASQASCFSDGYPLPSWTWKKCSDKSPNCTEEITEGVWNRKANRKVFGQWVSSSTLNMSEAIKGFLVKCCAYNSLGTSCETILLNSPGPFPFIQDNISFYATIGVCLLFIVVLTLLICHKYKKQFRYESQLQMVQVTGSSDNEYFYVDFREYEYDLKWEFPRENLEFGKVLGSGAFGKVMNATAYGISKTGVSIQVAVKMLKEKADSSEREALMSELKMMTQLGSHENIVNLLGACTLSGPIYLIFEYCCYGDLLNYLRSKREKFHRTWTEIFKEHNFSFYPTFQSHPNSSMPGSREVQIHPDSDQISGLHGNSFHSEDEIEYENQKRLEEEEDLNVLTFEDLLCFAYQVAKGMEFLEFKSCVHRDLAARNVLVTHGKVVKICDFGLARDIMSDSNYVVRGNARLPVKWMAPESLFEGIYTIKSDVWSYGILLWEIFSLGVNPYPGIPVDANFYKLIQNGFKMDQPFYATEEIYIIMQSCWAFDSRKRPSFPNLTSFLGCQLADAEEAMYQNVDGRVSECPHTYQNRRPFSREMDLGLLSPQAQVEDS
Experiment [5] deals with T2, NUAK family SNF1-like kinase 1 (Homo sapiens) (UniProt O60285).
T2 sequence (whole entry): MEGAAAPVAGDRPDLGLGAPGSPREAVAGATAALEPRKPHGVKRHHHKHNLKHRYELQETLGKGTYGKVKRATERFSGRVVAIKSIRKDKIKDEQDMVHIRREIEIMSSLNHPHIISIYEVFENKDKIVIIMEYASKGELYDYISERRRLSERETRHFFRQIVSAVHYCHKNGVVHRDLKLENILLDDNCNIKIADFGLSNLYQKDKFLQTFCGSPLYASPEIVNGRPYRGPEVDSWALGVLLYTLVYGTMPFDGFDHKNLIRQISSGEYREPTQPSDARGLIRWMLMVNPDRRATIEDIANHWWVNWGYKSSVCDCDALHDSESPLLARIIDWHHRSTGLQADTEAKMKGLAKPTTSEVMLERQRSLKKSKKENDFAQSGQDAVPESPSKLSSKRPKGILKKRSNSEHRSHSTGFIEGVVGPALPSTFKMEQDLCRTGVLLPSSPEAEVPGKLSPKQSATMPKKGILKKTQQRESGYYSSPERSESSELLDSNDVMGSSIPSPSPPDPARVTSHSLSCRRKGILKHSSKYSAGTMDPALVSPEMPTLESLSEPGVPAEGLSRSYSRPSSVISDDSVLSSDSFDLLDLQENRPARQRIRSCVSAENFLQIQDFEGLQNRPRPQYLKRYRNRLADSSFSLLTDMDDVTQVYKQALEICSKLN
Briefly: Inhibition of ARK5.

pIC50: −log10 of the molar value. Active and inactive are the calls of the source. The rule behind the calls is not given here. Bounds are passed on as bounds.

Glycogen synthase kinase-3 beta (Homo sapiens), sequence (P49841 whole entry, looked up): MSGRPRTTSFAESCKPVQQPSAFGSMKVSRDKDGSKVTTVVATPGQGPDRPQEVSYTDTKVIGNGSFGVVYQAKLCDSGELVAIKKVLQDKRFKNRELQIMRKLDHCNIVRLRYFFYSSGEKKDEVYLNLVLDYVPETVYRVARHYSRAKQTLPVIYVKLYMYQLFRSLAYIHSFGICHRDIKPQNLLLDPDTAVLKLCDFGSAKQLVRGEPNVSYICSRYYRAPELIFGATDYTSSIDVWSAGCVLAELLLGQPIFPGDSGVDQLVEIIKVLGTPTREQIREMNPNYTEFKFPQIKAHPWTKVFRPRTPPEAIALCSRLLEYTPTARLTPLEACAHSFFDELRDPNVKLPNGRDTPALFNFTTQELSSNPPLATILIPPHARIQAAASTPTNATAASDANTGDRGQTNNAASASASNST
Serine/threonine-protein kinase SIK1 (Homo sapiens), sequence (P57059 whole entry): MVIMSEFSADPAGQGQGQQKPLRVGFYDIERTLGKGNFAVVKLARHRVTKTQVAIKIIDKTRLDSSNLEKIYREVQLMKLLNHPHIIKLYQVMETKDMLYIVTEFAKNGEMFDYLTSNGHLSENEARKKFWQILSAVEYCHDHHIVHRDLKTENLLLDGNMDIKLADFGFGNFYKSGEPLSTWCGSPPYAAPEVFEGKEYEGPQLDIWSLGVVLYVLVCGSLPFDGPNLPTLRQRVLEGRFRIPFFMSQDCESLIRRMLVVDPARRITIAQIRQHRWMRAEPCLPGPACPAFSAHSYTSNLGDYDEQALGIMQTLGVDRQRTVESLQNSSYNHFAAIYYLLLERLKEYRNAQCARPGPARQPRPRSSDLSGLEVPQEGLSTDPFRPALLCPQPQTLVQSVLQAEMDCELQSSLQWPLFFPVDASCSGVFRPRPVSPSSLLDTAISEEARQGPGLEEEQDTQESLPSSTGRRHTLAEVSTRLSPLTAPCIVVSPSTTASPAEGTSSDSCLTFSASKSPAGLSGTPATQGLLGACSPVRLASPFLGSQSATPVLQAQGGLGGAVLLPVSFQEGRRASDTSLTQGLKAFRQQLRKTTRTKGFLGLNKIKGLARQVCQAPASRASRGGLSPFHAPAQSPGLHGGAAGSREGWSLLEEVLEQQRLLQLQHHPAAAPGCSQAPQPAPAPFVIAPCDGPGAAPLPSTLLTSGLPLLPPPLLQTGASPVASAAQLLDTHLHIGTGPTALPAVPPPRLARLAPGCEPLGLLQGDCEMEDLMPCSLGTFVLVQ

For the compound `NC1=NC(=O)/C(=C2\CCNC(=O)c3[nH]c4ccsc4c32)S1`, the negative logarithm of the IC50 (pIC50) in experiment [1] is 6.74.

In turn, `NC(=O)c1csc2c3c([nH]c12)C(=O)NCC/C3=C1/NC(N)=NC1=O` gave a pIC50 in experiment [1] of 6.82.

In experiment [1], `NC1=NC(=O)/C(=C2\CCNC(=O)c3[nH]c4c(-c5ccccc5)csc4c32)S1` gave a pIC50 of under 5.00.

`NC1=NC(=O)/C(=C2\CCNC(=O)c3[nH]c(Br)c(Br)c32)N1`: the pIC50 in experiment [1] was 7.00.

In experiment [1], `NC1=NC(=O)/C(=C2\CCNC(=O)c3[nH]c4cc(Br)sc4c32)N1` showed a pIC50 of 6.34.

In turn, `O=C1N=C(NCCO)N/C1=C1/CCNC(=O)c2[nH]c3c(Br)csc3c21` gave a pIC50 in experiment [1] of 6.55.

In experiment [1], `NC1=N/C(=C2/CCNC(=O)c3[nH]ccc32)C(=O)N1` [DEBROMOHYMENIALDISINE] showed a pIC50 of 6.48.

For `NC1=NC(=O)/C(=C2\CCNC(=O)c3[nH]c4c(Br)csc4c32)S1`, the pIC50 in experiment [1] is 6.72.

Consider `Nc1nc(C2=C3C(=Nc4ccccc43)C(=O)NCC2)c(O)[nH]1`, for which the pIC50 in experiment [1] was 6.33.

Compound `COc1ccc(Cn2c3c(c4scc(Br)c42)/C(=C2\NC(N)=NC2=O)CCNC3=O)cc1` had a pIC50 in experiment [1] of under 5.00.

`NC1=NC(=O)/C(=C2\CCNC(=O)c3[nH]c4cc(Cl)sc4c32)N1` had a pIC50 in experiment [1] of 6.52.

Take `O=C1N=C(NCCO)N/C1=C1/CCNC(=O)c2[nH]c3ccsc3c21`: the pIC50 in experiment [1] was 5.77.

On to `N#Cc1csc2c3c([nH]c12)C(=O)NCC/C3=C1/NC(N)=NC1=O`, for which the pIC50 in experiment [1] was 7.54.

`O=C(O)CNC1=NC(=O)/C(=C2\CCNC(=O)c3[nH]c4c(Br)csc4c32)N1` had a pIC50 in experiment [1] of 6.59. Against the preceding compound, the pIC50 is 0.95 log units lower.

As for `NC1=NC(=O)/C(=C2\CCNC(=O)c3[nH]c4c(Br)csc4c32)N1`, the pIC50 in experiment [1] was 7.85. The result in experiment [2], in experiment [3], in experiment [4] and in experiment [5] was Active.

Consider `NC1=NC(=O)/C(=C2\CCNC(=O)c3[nH]c4ccsc4c32)N1`, for which, in experiment [1], the pIC50 is 6.82.

As for `Cn1c2c(c3sccc31)/C(=C1\NC(N)=NC1=O)CCNC2=O`, in experiment [1], the pIC50 was under 5.00.

Compound `NC1=NC(=O)/C(=C2\CCNC(=O)c3[nH]c4c(-c5ccccc5)csc4c32)N1` showed a pIC50 in experiment [1] of 5.89.

In turn, `NC1=NC(=O)/C(=C2\CCNC(=O)c3[nH]c(Br)cc32)N1` [HYMENIALDISINE] gave a pIC50 in experiment [1] of 5.72.

`NC1=NC(=O)/C(=C2\CCNC(=O)c3[nH]c4c(sc5ccccc54)c32)S1` had a pIC50 in experiment [1] of under 5.00.

Take `NC1=NC(=O)/C(=C2\CCNC(=O)c3[nH]c4c(sc5ccccc54)c32)N1`: the pIC50 in experiment [1] was 6.64.

`NC1=NC(=O)/C(=C2\CCNC(=O)c3[nH]c4c(Cl)csc4c32)N1` gave a pIC50 in experiment [1] of 6.85.

In experiment [1], `NC1=NC(=O)/C(=C2\CCNC(=O)c3[nH]c4c(Cl)c(Cl)sc4c32)N1` showed a negative logarithm of the IC50 (pIC50) of 6.05.
